Test results published in PMC9021288 (Nature Communications, 2022).
Values joined by “and” are separate entries in the source; they are usually repeats but may differ in a detail not shown here. Equal entries are not always repeated. “Also recorded” adds a separate entry of the source.

Tests used:
[1] = target: T1, human recombinant CYP1A2 (Homo sapiens, UniProt P05177); experiment: CYP reaction phenotyping; type: in vitro ADME
T1 construct: purchased Bactosomes (assay run at Cyprotex)
T1 sequence (P05177 1-516): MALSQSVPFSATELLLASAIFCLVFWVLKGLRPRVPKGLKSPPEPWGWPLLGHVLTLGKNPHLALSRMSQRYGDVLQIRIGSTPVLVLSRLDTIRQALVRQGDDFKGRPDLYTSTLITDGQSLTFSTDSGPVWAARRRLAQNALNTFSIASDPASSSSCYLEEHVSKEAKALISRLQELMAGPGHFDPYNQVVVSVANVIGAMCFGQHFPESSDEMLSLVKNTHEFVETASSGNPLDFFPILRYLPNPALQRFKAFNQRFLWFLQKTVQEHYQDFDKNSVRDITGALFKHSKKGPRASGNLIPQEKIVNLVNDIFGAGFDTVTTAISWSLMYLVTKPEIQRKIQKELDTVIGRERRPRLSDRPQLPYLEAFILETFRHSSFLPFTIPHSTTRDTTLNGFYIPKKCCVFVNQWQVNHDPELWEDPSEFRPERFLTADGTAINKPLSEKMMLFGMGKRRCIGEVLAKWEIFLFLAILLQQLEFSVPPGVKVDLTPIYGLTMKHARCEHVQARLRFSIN
Experimental: (§1) In vitro CYP reaction phenotyping was performed at Cyprotex (Alderly Park, United Kingdom). […] The remaining test compound at each time point was analyzed by LC-MS/MS.

[2] = target: T2, human recombinant CYP2C19 (Homo sapiens, UniProt P33261); experiment: CYP reaction phenotyping; type: in vitro ADME; details: for Compound remaining (0 min = 100): CYP2C19
T2 construct: purchased Bactosomes (assay run at Cyprotex)
Experimental: as §1

[3] = target: T3, human recombinant CYP2D6 (Homo sapiens, UniProt P10635); experiment: CYP reaction phenotyping; type: in vitro ADME
T3 construct: purchased Bactosomes (assay run at Cyprotex)
Experimental: as §1

[4] = 8-day Dose Range Finding (DRF) rat study; type: in vivo, Wistar Han rats
Text: See the summary of the study design in Supplementary Table 31. Nine-week-old Wistar (Crl:WI (Han)) rats were obtained from Charles River Laboratories (Domaine des Oncins, Saint-Germain-Nuelles, France). […] Animals were examined daily for any altered clinical signs, body weights, and food consumption. Blood samples were taken at different timepoints after the test item administration, and toxicokinetic exposure assessed under the defined experimental conditions and analyzed using Phoenix (version 6.4 and 1.4) (Supplementary Table 32). Measurements included hematology and clinical chemistry measurements. Animals were euthanized and necropsied at the end of the dosing period. At necropsy, major organ systems and tissues were collected and weighed and then examined for gross lesions as well as for microscopic changes.

[5] = test system: human peripheral blood lymphocytes; experiment: In vitro micronucleus screening assay
Experimental: Safety studies were performed by commercial services using their standard protocols. […] Genotoxicity was investigated using the Ames test (Bacterial Reverse Mutation Assay) (Covance Laboratories Ltd, North Yorkshire, England). In vitro mammalian cell micronucleus screening assay was studied in human peripheral blood lymphocytes (BioReliance Corporation, Rockville, USA). Cardiotoxicity was determined against the hERG channel in an automated patch clamp assay using the Qpatch or against the hNaV 1.5, hKV 1.5 and hCaV 1.2 using a manual patch-clamp technique (Metrion Biosciences, Cambridge, UK). Cytotoxicity in human and rat primary hepatocytes was assessed using the CellTiter-Blue assay performed by commercial services (KaLy-Cell). The viability of HepG2 cells was monitored through the addition of 1 mM resazurin. Following 6 h incubation, the relative amount of reduced resazurin was detected in a fluorimeter and compared to the assay controls (vehicle: 0.1% DMSO and positive control: 10 µM puromycin).

[6] = 4-hour treatment + S9, 13.6 ug/ml
[7] = 4-hour treatment + S9, 19.4 ug/ml
[8] = 4-hour treatment + S9, 27.7 ug/ml
[9] = 4-hour treatment + S9, 39.5 ug/ml
[10] = 4-hour treatment + S9, 56.5 ug/ml
[11] = 4-hour treatment + S9, 80.7 ug/ml
[12] = 4-hour treatment + S9, 115 ug/ml
[13] = 4-hour treatment + S9, 165 ug/ml
[14] = 4-hour treatment + S9, 235 ug/ml
[15] = 4-hour treatment + S9, 336 ug/ml
[16] = 4-hour treatment + S9, 480 ug/ml
[17] = 4-hour treatment + S9, 686 ug/ml
[18] = 4-hour treatment + S9, 980 ug/ml
[19] = 4-hour treatment + S9, 1400 ug/ml
[20] = 4-hour treatment + S9, 2000 ug/ml
[21] = 4-hour treatment - S9, 13.6 ug/ml
[22] = 4-hour treatment - S9, 19.4 ug/ml
[23] = 4-hour treatment - S9, 27.7 ug/ml
[24] = 4-hour treatment - S9, 39.5 ug/ml
[25] = 4-hour treatment - S9, 56.5 ug/ml
[26] = 4-hour treatment - S9, 80.7 ug/ml
[27] = 4-hour treatment - S9, 115 ug/ml
[28] = 4-hour treatment - S9, 165 ug/ml
[29] = 4-hour treatment - S9, 235 ug/ml
[30] = 4-hour treatment - S9, 336 ug/ml
[31] = 4-hour treatment - S9, 480 ug/ml
[32] = 4-hour treatment - S9, 686 ug/ml
[33] = 4-hour treatment - S9, 980 ug/ml
[34] = 4-hour treatment - S9, 1400 ug/ml
[35] = 4-hour treatment - S9, 2000 ug/ml

T2 sequence (P33261 whole entry): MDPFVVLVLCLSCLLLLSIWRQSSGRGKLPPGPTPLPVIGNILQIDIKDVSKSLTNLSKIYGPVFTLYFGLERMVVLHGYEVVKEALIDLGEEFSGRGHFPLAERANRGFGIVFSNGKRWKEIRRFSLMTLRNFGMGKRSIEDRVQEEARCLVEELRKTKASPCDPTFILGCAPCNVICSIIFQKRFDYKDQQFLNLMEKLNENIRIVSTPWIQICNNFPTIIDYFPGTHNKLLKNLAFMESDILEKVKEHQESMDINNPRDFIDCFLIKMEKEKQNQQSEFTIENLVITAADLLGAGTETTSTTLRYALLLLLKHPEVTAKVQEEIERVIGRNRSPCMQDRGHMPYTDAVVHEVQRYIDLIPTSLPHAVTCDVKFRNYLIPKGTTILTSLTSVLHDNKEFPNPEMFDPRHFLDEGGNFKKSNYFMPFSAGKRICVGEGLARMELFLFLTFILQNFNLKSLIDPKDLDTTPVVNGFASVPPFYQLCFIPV
T3 sequence (P10635 whole entry): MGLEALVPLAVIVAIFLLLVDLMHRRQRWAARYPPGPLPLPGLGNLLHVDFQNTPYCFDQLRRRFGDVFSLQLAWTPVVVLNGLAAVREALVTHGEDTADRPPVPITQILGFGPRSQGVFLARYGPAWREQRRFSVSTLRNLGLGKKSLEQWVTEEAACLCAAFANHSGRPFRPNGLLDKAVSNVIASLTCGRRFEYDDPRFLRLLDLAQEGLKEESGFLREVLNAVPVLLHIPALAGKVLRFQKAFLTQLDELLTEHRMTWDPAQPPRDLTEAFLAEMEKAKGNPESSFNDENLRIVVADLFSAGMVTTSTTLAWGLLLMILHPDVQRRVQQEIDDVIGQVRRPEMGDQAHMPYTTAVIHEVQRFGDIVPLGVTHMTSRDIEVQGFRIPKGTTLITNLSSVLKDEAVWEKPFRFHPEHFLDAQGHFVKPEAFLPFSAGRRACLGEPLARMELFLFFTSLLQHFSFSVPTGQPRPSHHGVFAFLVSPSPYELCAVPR

In the case of `C[C@@H](CNC(=O)[C@H](O)C(C)(C)CO)NC(=O)c1cc(F)c(F)cc1F` [MMV693183], the “Compound remaining (0 min = 100)” value ([1]; Incubation time (minutes) 0) is reported as 100, the “Compound remaining (0 min = 100)” value ([1]; Incubation time (minutes) 5) is reported as 98.3 and the “Compound remaining (0 min = 100)” value ([1]; Incubation time (minutes) 15) is reported as 100. For the same compound, the “Compound remaining (0 min = 100)” value ([1]; Incubation time (minutes) 30) was 98.6, the “Compound remaining (0 min = 100)” value ([1]; Incubation time (minutes) 45) was 102 and the “role in oxidative metabolism” value ([2]; 1 µM, 45 min, to a lower extent) was “responsible for the oxidative metabolism”. The “Compound remaining (0 min = 100)” value ([2]; Incubation time (minutes) 0) was 100, the “Compound remaining (0 min = 100)” value ([2]; Incubation time (minutes) 5) was 98.6 and the “Compound remaining (0 min = 100)” value ([2]; Incubation time (minutes) 15) was 92.4. The “Compound remaining (0 min = 100)” value ([2]; Incubation time (minutes) 30) was 93.6, the “Compound remaining (0 min = 100)” value ([2]; Incubation time (minutes) 45) was 95.9 and the “Compound remaining (0 min = 100)” value ([3]; Incubation time (minutes) 0) was 100. For the same compound, the “Compound remaining (0 min = 100)” value ([3]; Incubation time (minutes) 5) was 105, the “Compound remaining (0 min = 100)” value ([3]; Incubation time (minutes) 15) was 101 and the “Compound remaining (0 min = 100)” value ([3]; Incubation time (minutes) 30) was 105. For the same compound, the “Compound remaining (0 min = 100)” value ([3]; Incubation time (minutes) 45) was 106, the “cumulative exposure vs predicted human efficacious exposure” value ([4]; 30 mg/kg/day group) was greater than 30 fold and the Liver weight ([4]; 10 and 30 mg/kg/day) was “Liver weight was unchanged”. The liver histology ([4]; 10 and 30 mg/kg/day) was “absence of liver microscopic findings”, the Liver weight ([4]; DRF 10 mg/kg/day, Females) was 6.6517 g and the Liver weight ([4]; DRF 10 mg/kg/day, Males) was 9.7817 g. The Liver weight ([4]; DRF 30 mg/kg/day, Females (two groups)) was 6.4437 g and 7.2357 g, the Liver weight ([4]; DRF 30 mg/kg/day, Males (two groups)) was 10.7203 g and 9.7543 g and the “Liver weight” value ([4]; DRF study, females, 10 mg/kg/day, individual animals) was 6.951 g and 7.042 g and 5.962 g. The “Liver weight” value ([4]; DRF study, females, 30 mg/kg/day (first column headed 30), individual animals, 30 mg/kg/day) was 7.24 g and 5.849 g and 6.242 g, the “Liver weight” value ([4]; DRF study, females, 30 mg/kg/day (second column headed 30), individual animals, 30 mg/kg/day) was 7.466 g and 7.43 g and 6.811 g and the “Liver weight” value ([4]; DRF study, males, 10 mg/kg/day, individual animals) was 9.171 g and 9.562 g and 10.612 g. The “Liver weight” value ([4]; DRF study, males, 30 mg/kg/day (first column headed 30), individual animals, 30 mg/kg/day) was 10.621 g and 11.894 g and 9.646 g, the “Liver weight” value ([4]; DRF study, males, 30 mg/kg/day (second column headed 30), individual animals, 30 mg/kg/day) was 10.364 g and 10.082 g and 8.817 g and the NOEL ([4]; eight days) was 30 mg/kg/day. For the same compound, the “decrease in systemic exposure day 7 vs day 1” value ([4]; predominantly males at 30 mg/kg/day) was “up to 4 fold”, the CBPI [5, 6] was 1.808 and the “Cytotoxicity (%)” value [5, 6] was 12%. For the same compound, the CBPI [5, 7] was 1.792, the “Cytotoxicity (%)” value [5, 7] was 14% and the CBPI [5, 8] was 1.76. For the same compound, the “Cytotoxicity (%)” value [5, 8] was 17%, the CBPI [5, 9] was 1.788 and the “Cytotoxicity (%)” value [5, 9] was 14%. For the same compound, the CBPI [5, 10] was 1.84, the “Cytotoxicity (%)” value [5, 10] was 9% and the CBPI [5, 11] was 1.792. For the same compound, the “Cytotoxicity (%)” value [5, 11] was 14%, the CBPI [5, 12] was 1.86 and the “Cytotoxicity (%)” value [5, 12] was 7%. The CBPI [5, 13] was 1.824, the “Cytotoxicity (%)” value [5, 13] was 10% and the CBPI [5, 14] was 1.772. For the same compound, the “Cytotoxicity (%)” value [5, 14] was 16%, the CBPI [5, 15] was 1.824 and the “Cytotoxicity (%)” value [5, 15] was 10%. For the same compound, the CBPI [5, 16] was 1.848, the “Cytotoxicity (%)” value [5, 16] was 8% and the “Percentage of MNBN Cells/Total BN Cells counted (%)” value [5, 16] was 0.4%. The CBPI [5, 17] was 1.824, the “Cytotoxicity (%)” value [5, 17] was 10% and the CBPI [5, 18] was 1.84. For the same compound, the “Cytotoxicity (%)” value [5, 18] was 9%, the CBPI [5, 19] was 1.836 and the “Cytotoxicity (%)” value [5, 19] was 9%. For the same compound, the “Percentage of MNBN Cells/Total BN Cells counted (%)” value [5, 19] was 0.6%, the CBPI [5, 20] was 1.388 and the “Cytotoxicity (%)” value [5, 20] was 58%. The “Percentage of MNBN Cells/Total BN Cells counted (%)” value [5, 20] was 0.4%, the CBPI [5, 21] was 1.916 and the “Cytotoxicity (%)” value [5, 21] was 0%. For the same compound, the CBPI [5, 22] was 1.86, the “Cytotoxicity (%)” value [5, 22] was 6% and the CBPI [5, 23] was 1.912. For the same compound, the “Cytotoxicity (%)” value [5, 23] was 0%, the CBPI [5, 24] was 1.832 and the “Cytotoxicity (%)” value [5, 24] was 9%. The CBPI [5, 25] was 1.864, the “Cytotoxicity (%)” value [5, 25] was 6% and the CBPI [5, 26] was 1.876. The “Cytotoxicity (%)” value [5, 26] was 4%, the CBPI [5, 27] was 1.88 and the “Cytotoxicity (%)” value [5, 27] was 4%. The CBPI [5, 28] was 1.804, the “Cytotoxicity (%)” value [5, 28] was 12% and the CBPI [5, 29] was 1.84. For the same compound, the “Cytotoxicity (%)” value [5, 29] was 8%, the CBPI [5, 30] was 1.792 and the “Cytotoxicity (%)” value [5, 30] was 14%. For the same compound, the CBPI [5, 31] was 1.8, the “Cytotoxicity (%)” value [5, 31] was 13% and the “Percentage of MNBN Cells/Total BN Cells counted (%)” value [5, 31] was 0.4%. The CBPI [5, 32] was 1.832, the “Cytotoxicity (%)” value [5, 32] was 9% and the CBPI [5, 33] was 1.808. For the same compound, the “Cytotoxicity (%)” value [5, 33] was 12%, the CBPI [5, 34] was 1.704 and the “Cytotoxicity (%)” value [5, 34] was 23%. For the same compound, the “Percentage of MNBN Cells/Total BN Cells counted (%)” value [5, 34] was 0.4%, the CBPI [5, 35] was 1.496 and the “Cytotoxicity (%)” value [5, 35] was 46%. The “Percentage of MNBN Cells/Total BN Cells counted (%)” value [5, 35] was 0.4% and the micronucleus test result ([5]; up to 2000 µg/ml, with or without S-9) was “No induction of micronuclei; also recorded: negative”.
